The values that follow come from patent publication US20060234936A1, “Method for screening substances capable of inhibiting the hyperplasia of pancreatic cells and/or the hypersecretion of insulin by pancreatic cells” (Taisho Pharmaceutical Co., Ltd., priority 2005, published 2006).

In one data set the test system is isolated islet. The settings on record: cited from earlier work.
A further data set has as its system Reg IIIβ. The experiment in a line: Real-time quantitative RT-PCR of Reg IIIβ mRNA in INS-1 cells treated with PACAP. It is filed as cell-based, rat. How it is done:
(§1) INS-1 cells (rat pancreatic β cell line) were cultured in an incubator at 5% CO2/95% air and 37° C. using an RMI 1640 medium (GIBCO) containing 10 mM HEPES, 10% FBS, 1 mM sodium pyruvate, 50 μM β-mercaptoethanol, 100 units/ml penicillin, and 100 μg/ml streptomycin. Subculturing was carried out every 7 days, using PBS containing 0.25% trypsin/0.02% EDTA
Real-time quantitative PCR was conducted under the conditions similarly to the mouse islet case. The expression level of the β-actin gene was analyzed as an internal standard in a similar manner. In PCR the primers having the following sequences were used.

A further data set deals with INS-1 cells. Put plainly: Analysis of cell growth, [3H] thymidine incorporation in INS-1 cells. It is filed as cell-based, rat. As to the method:
as §1
The cells were seeded on a 48-well plate at a concentration of 1×10^5 cells/well and were cultured for 48 hours. After washing the cells with PBS, the cells were cultured in an RPMI-1640 medium (test medium) for 12 to 15 hours which had been deprived of serum and to which 3 mM glucose and 0.1% BSA had been added. […] The cells were cultured in the media for 20 hours, and after further addition of [^3H] thymidine (Amersham) to the media in order to achieve a radioactivity of 1 μCi/well, the cells were cultured for additional 4 hours. After washing the cells with PBS twice followed by with 10% trichloroacetic acid (TCA) twice, the cells were fixed by TCA treatment for 30 minutes. The cells were solublized with 0.1 N NaOH and the radioactivity of each medium was measured with a liquid scintillation counter.
Background: Incorporation of labelled thymidine or its analogues reports DNA synthesis.

Another data set has as its system Reg IIIβ gene. Put plainly: Gene expression inhibition by siRNA, Reg IIIβ mRNA by real-time quantitative RT-PCR. It is filed as cell-based, rat. The note with it: INS-1 cells, siRNA 100 nM, 24 hours after introduction. How it is done: (§2) INS-1 cells (rat pancreatic β cell line) were cultured in an incubator at 5% CO2/95% air and 37° C. using an RPMI 1640 medium (GIBCO) containing 10 mM HEPES, 10% FBS, 1 mM sodium pyruvate, and 50 μM β-mercaptoethanol. Subculturing was carried out every 5 days, using PBS containing 0.25% trypsin/0.02% EDTA.
(§3) The cells were seeded on a 12-well plate (Iwaki Glass Co. Ltd.) at a concentration of 0.25×10^5 cells/cm^2 and were cultured for 48 hours. A cocktail of three types of siRNAs to the Reg IIIβ gene, individual siRNAs (three types), siRNA to Lamin (positive control; B-Bridge), and a cocktail of three types of non-specific siRNAs (negative control; B-Bridge) were diluted with Opti-MEM (GIBCO) so as to produce the final concentrations of 100 nM. The respective RNAs were introduced into the cells using Lipofectamine 2000 (Invitrogen Corporation) and the cells were cultured for 24 hours. After washing the cells with PBS twice, total RNAs were prepared using a SV Total Isolation Kit (Promega Corporation) and cDNA pools were then prepared using reverse transcriptase M-MLV (Invitrogen Corporation). Real-time quantitative PCR was conducted under the conditions similarly to the mouse islet case. The expression level of the rat β-actin gene was analyzed as an internal standard in a similar manner. The sequences of the siRNAs and the sequences of specific primers for PCR are shown below.

The next data set concerns Lamin gene. The experiment in a line: Gene expression inhibition by siRNA, Lamin mRNA by real-time quantitative RT-PCR. Format: cell-based, rat. The note with it: INS-1 cells, siRNA 100 nM, 24 hours after introduction. How it is done: as §2, §3

`CC[C@H](C)[C@H](NC(=O)CNC(=O)[C@H](CC(=O)O)NC(=O)[C@H](CO)NC(=O)[C@@H](N)Cc1c[nH]cn1)C(=O)N[C@@H](Cc1ccccc1)C(=O)N[C@H](C(=O)N[C@@H](CC(=O)O)C(=O)N[C@@H](CO)C(=O)N[C@@H](Cc1ccc(O)cc1)C(=O)N[C@@H](CO)C(=O)N[C@@H](CCCNC(=N)N)C(=O)N[C@@H](Cc1ccc(O)cc1)C(=O)N[C@@H](CCCNC(=N)N)C(=O)N[C@@H](CCCCN)C(=O)N[C@@H](CCC(N)=O)C(=O)N[C@@H](CCSC)C(=O)N[C@@H](C)C(=O)N[C@H](C(=O)N[C@@H](CCCCN)C(=O)N[C@@H](CCCCN)C(=O)N[C@@H](Cc1ccc(O)cc1)C(=O)N[C@@H](CC(C)C)C(=O)N[C@@H](C)C(=O)N[C@@H](C)C(=O)N[C@H](C(=O)N[C@@H](CC(C)C)C(=O)NCC(=O)N[C@@H](CCCCN)C(=O)N[C@@H](CCCNC(=N)N)C(=O)N[C@@H](Cc1ccc(O)cc1)C(=O)N[C@@H](CCCCN)C(=O)N[C@@H](CCC(N)=O)C(=O)N[C@@H](CCCNC(=N)N)C(=O)N[C@H](C(=O)N[C@@H](CCCCN)C(=O)N[C@@H](CC(N)=O)C(=O)N[C@@H](CCCCN)C(N)=O)C(C)C)C(C)C)C(C)C)[C@@H](C)O` [PACAP]: the “level at which glucose-inducible insulin secretion is promoted” value in the data set with isolated islet is recorded as 10^−14 M. For the same compound, the “change in mRNA expression of Reg IIIβ” value with Reg IIIβ (3 mM glucose) was “no change in expression”; with Reg IIIβ (11 mM glucose) it was “no change in expression”; with Reg IIIβ (high glucose concentration (25 mM), after 4 hours), “expression-induction”; in the data set on Reg IIIβ (high glucose concentration (25 mM), until after 48 hours) it was “continuous increase in the expression”. The “effect on cell growth” value in the data set on INS-1 cells (3 mM glucose) and in the data set with INS-1 cells (11 mM glucose) was “No effects” throughout. For the same compound, the “cell growth inhibition, dependence on PACAP concentration” value in the data set on INS-1 cells (high glucose concentration, varying PACAP concentration) is on record as “inhibited the cell growth of INS-1 cells in a concentration-dependent manner”.
Consider “(3): double-stranded siRNA to Reg IIIβ, SEQ ID NO:20/21 (chain 1 GGAAACAGCUACCAAUAUATT; chain 2 UAUAUUGGUAGCUGUUUCCTT; chemistry not given here)”, for which the “suppression of expression of Reg IIIβ gene vs negative control” value in the data set on Reg IIIβ gene is recorded as “about 60%”.
As to “Lamin siRNA: double-stranded siRNA to Lamin A/C, positive control (B-Bridge), SEQ ID NO:14/15 (chain 1 GGUGGUGACGAUCUGGGCUTT; chain 2 AGCCCAGAUCGUCACCACCTT; chemistry not given here)”, the “suppression of expression of Lamin gene vs negative control” value in the data set on Lamin gene was “about 65%”.
